In brackets after ≈: the same amount, converted by molar mass.
What was measured:
[1] = system: Cryptococcus deneoformans; assay: MIC broth microdilution (CLSI); format: cell-based; settings: Cryptococcus deneoformans JEC21
Description: (§2) Antifungal susceptibility was determined by broth microdilution according to the CLSI guidelines described in M27-Ed4 ([16]).

Fusarium solani [2] = assay: checkerboard drug interaction (FICI, MICc); format: cell-based;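 note: simplified diagonal checkerboard screen pairing antifungals with FPPS inhibitors, FICI derived under the Loewe additivity model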
Description: (§3) Drug interactions between antifungals and FPPS inhibitors were investigated using a simplified checkerboard diagonal screening method ([45]). […] FICIs were determined according to the Loewe additivity model ([17]).

Cryptococcus tetragattii [3] = assay: checkerboard drug interaction (FICI, MICc); format: cell-based;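 note: simplified diagonal checkerboard screen pairing antifungals with FPPS inhibitors, with FICI calculated under the Loewe additivity model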
Description: as §3

Aspergillus niger = assay: checkerboard drug interaction (FICI, MICc); format: cell-based;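 note: simplified diagonal checkerboard screen pairing antifungals with FPPS inhibitors, FICI calculated under the Loewe additivity model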
Description: as §3

Cryptococcus tetragattii [4] = assay: MIC broth microdilution (CLSI); format: cell-based; settings: Cryptococcus tetragattii WM779
Description: as §2

Candida dubliniensis [5] = assay: checkerboard drug interaction (FICI, MICc); format: cell-based;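 note: simplified diagonal checkerboard screen pairing antifungals with FPPS inhibitors, FICI calculated under the Loewe additivity model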
Description: as §3

Lomentospora prolificans = assay: checkerboard drug interaction (FICI, MICc);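 note: simplified diagonal checkerboard screen pairing antifungals with FPPS inhibitors, FICI calculated under the Loewe additivity model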
Description: as §3

Aspergillus terreus = assay: checkerboard drug interaction (FICI, MICc); format: cell-based;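 note: simplified diagonal checkerboard screen pairing antifungals with FPPS inhibitors, FICI derived by the Loewe additivity model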
Description: as §3

[6] = system: Trichophyton rubrum biofilms; assay: biofilm XTT reduction assay (SIC80, SFICI); format: cell-based; settings: biofilm, agent alone; Trichophyton rubrum 213
Description: (§4) Biofilms of Cryptococcus were seeded in DMEM, and all other species were seeded in RPMI-1640.

[7] = system: Aspergillus fumigatus biofilms; assay: biofilm XTT reduction assay (SIC80, SFICI); format: cell-based
Description: (§1) […]. […] […].

[8] = system: Aspergillus flavus biofilms; assay: biofilm XTT reduction assay (SIC80, SFICI); format: cell-based
Description: as §1

[9] = system: Candida glabrata biofilms; assay: biofilm XTT reduction assay (SIC80, SFICI); format: cell-based
Description: as §1

Candida dubliniensis [10] = assay: MIC broth microdilution (CLSI); format: cell-based; settings: Candida dubliniensis M230642
Description: as §2

Epidermophyton floccosum = assay: checkerboard drug interaction (FICI, MICc);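 note: simplified diagonal checkerboard screen pairing antifungals with FPPS inhibitors, FICI calculated under the Loewe additivity model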
Description: as §3

Pichia kudriavzevii = assay: checkerboard drug interaction (FICI, MICc); format: cell-based;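 note: antifungal plus FPPS inhibitor interactions tested in a simplified diagonal checkerboard screen, with FICI calculated under the Loewe additivity model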
Description: as §3

Nannizzia gypsea [11] = assay: checkerboard drug interaction (FICI, MICc);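 note: simplified diagonal checkerboard screen pairing antifungals with FPPS inhibitors, FICI derived using the Loewe additivity model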
Description: as §3

[12] = system: Candida albicans biofilms; assay: biofilm XTT reduction assay (SIC80, SFICI); settings: agent alone, Candida albicans SC5314
Description: as §4

Trichophyton tonsurans = assay: checkerboard drug interaction (FICI, MICc); format: cell-based;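 note: simplified diagonal checkerboard screen combining antifungals with FPPS inhibitors, with FICI calculated under the Loewe additivity model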
Description: as §3

[13] = system: Saccharomyces cerevisiae biofilms; assay: biofilm XTT reduction assay (SIC80, SFICI); format: cell-based; settings: FLC:10-ZOL combination, Saccharomyces cerevisiae
Description: as §4

Paraphyton cookei = assay: checkerboard drug interaction (FICI, MICc);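 note: simplified diagonal checkerboard screen pairing an antifungal with an FPPS inhibitor, FICI computed under the Loewe additivity model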
Description: as §3

Candida auris = assay: MIC broth microdilution (CLSI); format: cell-based; settings: Candida auris CDC-0384
Description: as §2

Scedosporium apiospermum = assay: checkerboard drug interaction (FICI, MICc); format: cell-based;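 note: simplified diagonal checkerboard screen of antifungal plus FPPS inhibitor pairs, with FICI computed under the Loewe additivity model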
Description: as §3

[14] = system: Trichophyton interdigitale; assay: MIC broth microdilution (CLSI); format: cell-based; settings: Trichophyton interdigitale R-234
Description: as §2

Fusarium solani [15] = assay: MIC broth microdilution (CLSI); settings: Fusarium solani 04-16-056-1862
Description: as §2

Mucor circinelloides = assay: MIC broth microdilution (CLSI); format: cell-based; settings: Mucor circinelloides 80-14-240-5007
Description: as §2

Trichophyton soudanense = assay: MIC broth microdilution (CLSI); settings: Trichophyton soudanense R-167
Description: as §2

Aspergillus parafelis = assay: MIC broth microdilution (CLSI); format: cell-based; settings: Aspergillus parafelis DTO 341-F2
Description: as §2

Nannizzia gypsea [16] = assay: MIC broth microdilution (CLSI); format: cell-based; settings: Nannizzia gypsea R-131
Description: as §2

Aspergillus udagawae = assay: MIC broth microdilution (CLSI); format: cell-based; settings: Aspergillus udagawae 8G81
Description: as §2

OC(Cn1cncn1)(Cn1cncn1)c1ccc(F)cc1F [FLC, fluconazole]
MIC / MEC [1]: 0.5 µg/mL (≈ 1.63 µM)
antifungal MICc (Fusarium solani [2]; in combination with 10-ZOL): 64
antifungal MICc (Fusarium solani [2]; in combination with ZOL): 32
antifungal MICc (Cryptococcus tetragattii [3]; in combination with 10-ZOL): 2
antifungal MICc (Cryptococcus tetragattii [3]; in combination with ZOL): 1
antifungal MICc (Aspergillus niger; in combination with 10-ZOL): 64
MIC / MEC (Cryptococcus tetragattii [4]): 4 µg/mL (≈ 13.1 µM)
antifungal MICc (Candida dubliniensis [5]; in combination with 10-ZOL): 0.125
antifungal MICc (Candida dubliniensis [5]; in combination with ZOL): 0.03125
antifungal MICc (Lomentospora prolificans; in combination with ZOL): 512
antifungal MICc (Aspergillus terreus; in combination with 10-ZOL): 2
antifungal MICc (Aspergillus terreus; in combination with ZOL): 8
SIC80 [6]: 2,048 µg/mL
SICc ([7]; FLC:10-ZOL combination, Aspergillus fumigatus): 512 µg/mL
SIC80 ([7]; agent alone, Aspergillus fumigatus ATCC 204305): >2,048 µg/mL
SICc ([8]; FLC:10-ZOL combination, Aspergillus flavus): 512 µg/mL
SIC80 ([8]; agent alone, Aspergillus flavus ATCC 204304): 1,024 µg/mL
SICc ([9]; FLC:10-ZOL combination, Candida glabrata): 512 µg/mL
SIC80 ([9]; agent alone, Candida glabrata CBS138): >2,048 µg/mL
MIC / MEC (Candida dubliniensis [10]): 0.125 µg/mL (≈ 0.408 µM)
antifungal MICc (Epidermophyton floccosum; in combination with 10-ZOL): 32
antifungal MICc (Pichia kudriavzevii; in combination with 10-ZOL): 16
antifungal MICc (Pichia kudriavzevii; in combination with ZOL): 8
antifungal MICc (Nannizzia gypsea [11]; in combination with 10-ZOL): 64
SIC80 [12]: 512 µg/mL
antifungal MICc (Trichophyton tonsurans; in combination with 10-ZOL): 2
antifungal MICc (Trichophyton tonsurans; in combination with ZOL): 32
SICc [13]: 64 µg/mL
antifungal MICc (Paraphyton cookei; in combination with 10-ZOL): 8

C[C@@H]1[C@H](O)[C@@H](C)/C=C/C=C/C=C/C=C/C=C/C=C/C=C/[C@H](O[C@@H]2O[C@H](C)[C@@H](O)[C@H](N)[C@@H]2O)C[C@@H]2O[C@](O)(C[C@@H](O)C[C@@H](O)[C@H](O)CC[C@@H](O)C[C@@H](O)CC(=O)O[C@H]1C)C[C@H](O)[C@H]2C(=O)O [AMB, amphotericin B]
MIC / MEC [1]: 0.25 µg/mL (≈ 0.271 µM)
antifungal MICc (Fusarium solani [2]; in combination with 10-ZOL): 0.25
antifungal MICc (Fusarium solani [2]; in combination with ZOL): 0.25
MIC / MEC (Candida auris): 2 µg/mL (≈ 2.16 µM)
antifungal MICc (Cryptococcus tetragattii [3]; in combination with 10-ZOL): 0.25
antifungal MICc (Cryptococcus tetragattii [3]; in combination with ZOL): 0.125
antifungal MICc (Aspergillus niger; in combination with 10-ZOL): 0.25
antifungal MICc (Aspergillus niger; in combination with ZOL): 0.125
MIC / MEC (Cryptococcus tetragattii [4]): 0.5 µg/mL (≈ 0.541 µM)
antifungal MICc (Scedosporium apiospermum; in combination with 10-ZOL): 2
antifungal MICc (Scedosporium apiospermum; in combination with ZOL): 8
antifungal MICc (Candida dubliniensis [5]; in combination with 10-ZOL): 0.25
antifungal MICc (Candida dubliniensis [5]; in combination with ZOL): 0.25
MIC / MEC [14]: 0.5 µg/mL (≈ 0.541 µM)
MIC / MEC (Fusarium solani [15]): 0.5 µg/mL (≈ 0.541 µM)
antifungal MICc (Lomentospora prolificans; in combination with 10-ZOL): 4
antifungal MICc (Lomentospora prolificans; in combination with ZOL): 4
antifungal MICc (Aspergillus terreus; in combination with 10-ZOL): 0.25
antifungal MICc (Aspergillus terreus; in combination with ZOL): 0.5
MIC / MEC (Candida dubliniensis [10]): 0.25 µg/mL (≈ 0.271 µM)
antifungal MICc (Epidermophyton floccosum; in combination with 10-ZOL): 0.5
antifungal MICc (Epidermophyton floccosum; in combination with ZOL): 0.25
antifungal MICc (Pichia kudriavzevii; in combination with 10-ZOL): 0.25
antifungal MICc (Pichia kudriavzevii; in combination with ZOL): 0.25
MIC / MEC (Mucor circinelloides): 0.25 µg/mL (≈ 0.271 µM)
MIC / MEC (Trichophyton soudanense): 0.5 µg/mL (≈ 0.541 µM)
antifungal MICc (Nannizzia gypsea [11]; in combination with 10-ZOL): 0.5
antifungal MICc (Nannizzia gypsea [11]; in combination with ZOL): 0.25
MIC / MEC (Aspergillus parafelis): 4 µg/mL (≈ 4.33 µM)
MIC / MEC (Nannizzia gypsea [16]): 0.5 µg/mL (≈ 0.541 µM)
antifungal MICc (Trichophyton tonsurans; in combination with 10-ZOL): 0.25
antifungal MICc (Trichophyton tonsurans; in combination with ZOL): 0.25
antifungal MICc (Paraphyton cookei; in combination with 10-ZOL): 1
antifungal MICc (Paraphyton cookei; in combination with ZOL): 0.25
MIC / MEC (Aspergillus udagawae): 2 µg/mL (≈ 2.16 µM)
